Target: T1, human Syk (GST-Syk) (Homo sapiens, UniProt P43405)
T1 construct: A cDNA fragment encoding human Syk openreading frame was cloned; made in house; host or cells: Sf21 insect cells (baculovirus, transfer vector pAcG2T)
Test: Syk tyrosine kinase inhibitory assay
Format: biochemical
Conditions: Table 11; read-out: Activity grade
Excerpt: [Syk Tyrosine Kinase Inhibitory Assay]
(1) Preparation of Syk Protein
A cDNA fragment encoding human Syk openreading frame was cloned from total RNA of human Burkitt's lymphoma B cell lines, Raji (American Type Culture Collection), with the use of RT-PCR method. The cDNA fragment was inserted into pAcG2T (Pharmingen, San Diego, Calif.) to construct a baculovirus transfer vector. Then the vector, together with the linearized baculovirus (BaculoGold™, Pharmingen), was used to transfect Sf21 cells (Invitrogen, San Diego, Calif.).
Generated recombinant baculovirus was cloned and amplified in Sf21 cells. Sf21 cells were infected with this amplified high titer virus to produce a chimeric protein of Syk kinase fused by glutathione-S-transferase (GST).
The resulting GST-Syk was purified with the use of glutathione column (Amersham Pharmacia Biotech AB, Uppsala, Sweden) according to the manufacturer's instruction.
(2) Synthesize of a Peptide
Next, a peptide fragment of 30 residues including two tyrosine residues, […], was synthesized by a peptide synthesizer. The N-terminal of the fragment was then biotinylated to obtain biotinylated activation loop peptide (AL).
(3) The Measurement of Syk Tyrosine Kinase Activity
All reagents were diluted with the Syk kinase assay buffer (50 mM Tris-HCl (pH 8.0), 10 mM MgCl2, 0.1 mM Na3VO4, 0.1% BSA, 1 mM DTT). First, a mixture (35 μl) including […] of GST-Syk and 0.5 μg of AL was put in each well in 96-well plates. Then 5 μl of a test compound in the presence of 2.5% dimethylsulfoxide (DMSO) was added to each well. To this mixture was added […] (10 μl) to initiate the kinase reaction. The final reaction mixture (50 μl) consists of 0.65 nM GST-Syk, 3 μM AL, 30 μM ATP, a test compound, 0.25% DMSO, and a Syk kinase assay buffer.
The mixture was incubated for 1 hr at room temperature, and the reaction was terminated by the addition of 120 μl of termination buffer (50 mM Tris-HCl (pH 8.0), 10 mMEDTA, 500 mM NaCl, 0.1% BSA). The mixture was transferred to streptavidin-coated plates and incubated for 30 min at room temperature to combine biotin-AL to the plates. After washing the plates with Tris-buffered saline (TBS) (50 mM Tris-HCl (pH 8.0), 138 mM NaCl, 2.7 mM KCl) containing 0.05% Tween-20 for 3 times, 100 μl of antibody solution consisting of 50 mM Tris-HCl (pH 8.0), 138 mM NaCl, 2.7 mM KCl, 1% BSA, 60 ng/ml anti-phosphotyrosine monoclonal antibody, 4G10 (Upstate Biotechnology), which is labeled with europium by Amersham Pharmacia's kit in advance, was added and incubated at room temperature for 60 min. After washing, 100 μl of enhancement solution (Amersham pharmacia Biotech) was added and then time-resolved fluorescence was measured by multi-label counter ARVO (Wallac Oy, Finland) at 340 nm for excitation and 615 nm for emission with 400 msec of delay and 400 msec of window.

First: COc1ccc(-c2cc3nccn3c(Nc3ccccc3)n2)cc1OC(C)=O [Example 12-17]
Second: CCOCCOc1ccc(-c2cc3nccn3c(Nc3ccccc3)n2)cc1OCCOCC [Example 12-24]
The IC50 of the first is lower: < 500 nM for the first, 500 to 2000 nM for the second.

First: COc1ccc(-c2cc3nccn3c(NC3=NNCS3)n2)cc1OC [Example 12-31]
Second: COc1ccc(-c2cc3nccn3c(Nc3cnccc3C(N)=O)n2)cc1OC [Example 12-45]
The IC50 of the first is higher: 500 to 2000 nM for the first, < 500 nM for the second. The second is the more potent here.

Same assay, conditions: Table 13; read-out: Activity grade

First: COc1ccc(-c2cc3nccn3c(SCCNC(=O)OC(C)(C)C)n2)cc1OC [Example 14-24]
Second: COc1ccc(-c2cc3nccn3c(SCCN(C)C)n2)cc1OC [Example 14-27]
The IC50 of the first is higher: 500 to 2000 nM for the first, < 500 nM for the second.

Compared with `COc1ccc(-c2cc3nccn3c(SCC(C)C)n2)cc1OC` [Example 14-22], `COc1ccc(-c2cc3nccn3c(SCc3ccc(Cl)cc3)n2)cc1OC` [Example 14-15] is higher in IC50: < 500 nM for the first, 500 to 2000 nM for the second. The first is the more potent here.

Same assay, conditions: Table 14; read-out: Activity grade

`COc1ccc(-c2cc3nccn3c(Sc3ccc(SCC(=O)O)cc3)n2)cc1OC` [Example 15-3] was tested, and the IC50 was < 500 nM.

Same assay, conditions: Table 16; read-out: Activity grade

First: CCSc1nc(-c2ccc(NCCN(C)C)c(OC)c2)cc2nccn12 [Example 17-7]
Second: CCSc1nc(-c2ccc(N(C)CCCN3CCOCC3)c(OC)c2)cc2nccn12 [Example 17-17]
The IC50 of the first is higher: 500 to 2000 nM for the first, < 500 nM for the second.

Same assay, conditions: Table 17; IC50 classes; read-out: Activity grade

First: COc1ccc(-c2cc3nccn3c(Nc3ccccc3)n2)cc1NC(=O)CCC(=O)O [Example 2]
Second: COc1ccc(-c2cc3nccn3c(NC(=O)Nc3ccccc3)n2)cc1OC [Example 22]
The IC50 of the first is lower: < 500 nM for the first, 500 to 2000 nM for the second.

`COc1ccc(-c2cc3nccn3c(N(C)c3ccncc3)n2)cc1OC` [Example 36] and `COc1ccc(-c2cc3nccn3c(SCC(=O)O)n2)cc1OC` [Example 26] fall in the same range of IC50: 2000 to 10000 nM for the first, 2000 to 10000 nM for the second.

Same assay, conditions: in vitro; compounds as yielded by solid phase synthesis, purity about 40 to 90%; read-out: Activity grade (IC50 class)

First: CCSc1nc(-c2ccc(OC)c(OS(C)(=O)=O)c2)cc2nccn12 [Example 4-9]
Second: CCNC(=O)Oc1cc(-c2cc3nccn3c(SCC)n2)ccc1OC [Example 4-8]
The IC50 of the first is higher: 500 to 2000 nM for the first, < 500 nM for the second.

`CCOC(=O)Cc1ccc(Nc2nc(-c3ccc(OC)c(OC)c3)cc3nccn23)cc1` [Example 9-23] and `COc1ccc(-c2cc3nccn3c(Nc3ccc(C(F)(F)F)cc3)n2)cc1OC` [Example 11-71] cannot be ordered by IC50: < 500 nM for the first, < 500 nM for the second.

`COc1ccc(-c2cc3nccn3c(Nc3ccc(OC(F)(F)F)cc3)n2)cc1OC` [Example 11-95] and `COc1ccc(-c2cc3nccn3c(Nc3ccc(F)c(F)c3)n2)cc1OC` [Example 11-57] cannot be ordered by IC50: < 500 nM for the first, < 500 nM for the second.

Compared with `CCSc1nc(-c2ccc(SC)cc2)cc2nccn12` [Example 1-12], `CCSc1nc(-c2ccc([N+](=O)[O-])c(OC)c2)cc2nccn12` [Example 8-8] is higher in IC50: 500 to 2000 nM for the first, 2000 to 10000 nM for the second. The first is the more potent here.

First: COc1ccc(-c2cc3nccn3c(N3CCCC(CO)C3)n2)cc1OC (centres unmarked) [Example 9-65]
Second: COc1ccc(-c2cc3nccn3c(SC3C=CCCC3)n2)cc1OC (centres unmarked) [Example 9-6]
The IC50 of the first is higher: 500 to 2000 nM for the first, < 500 nM for the second. The second is the more potent here.

First: CCOCCOc1cc(-c2cc3nccn3c(SCC)n2)ccc1OC [Example 4-6]
Second: CCSc1nc(-c2ccc(OC)c(OCCCN3CCCCC3)c2)cc2nccn12 [Example 5-6]
The IC50 of the first is lower: < 500 nM for the first, 500 to 2000 nM for the second. The first is the more potent here.

First: COc1ccc(-c2cc3nccn3c(Nc3ccccc3C(=O)NN)n2)cc1OC [Example 11-13]
Second: COc1ccc(-c2cc3nccn3c(Nc3ccc(I)cc3C(N)=O)n2)cc1OC [Example 11-78]
The IC50 of the first is higher: 2000 to 10000 nM for the first, < 500 nM for the second.

`COc1ccc(-c2cc3nccn3c(N3CCN(c4ncccn4)CC3)n2)cc1OC` [Example 9-41] and `COc1ccc(-c2cc3nccn3c(N(C)c3ccc(Cl)cc3)n2)cc1OC` [Example 11-45] fall in the same range of IC50: 500 to 2000 nM for the first, 500 to 2000 nM for the second.

`COc1ccc(-c2cc3ncnn3c(Nc3ccc(/C=C/C(=O)O)cc3)n2)cc1OC` [Example 9-19] and `COc1ccc(-c2cc3nccn3c(Nc3ccc4c(c3)CCC(C(=O)O)C4)n2)cc1OC` (centres unmarked) [Example 11-5] cannot be ordered by IC50: < 500 nM for the first, < 500 nM for the second.

`COc1cc(-c2cc3nccn3c(Sc3ccc(CCC(=O)O)cc3)n2)ccc1OCCN1CCOCC1` [Example 13-28] and `Cc1c(N)cccc1Oc1nc(-c2ccc(O)c(O)c2)cc2ncnn12` [Example 14] cannot be ordered by IC50: < 500 nM for the first, < 500 nM for the second.
